Laboratory results taken from US7041687B2, “Indazole compounds useful as protein kinase inhibitors” (Vertex Pharmaceuticals Incorporated, priority 2002, dated 2006).
Several values for one entry are separate records, joined by “and”; a condition that tells them apart may be missing. Identical values can stand only once.

Key:
Type in all cases: biochemical
PDK-1 = molecular target: T1, PDK-1 (Homo sapiens, UniProt O15530); experiment: PDK-1 inhibition assay (radioactive-phosphate incorporation); conditions: 40 μM ATP, 65 μM PDKtide, 25 nM PDK-1, 30° C.
T1 sequence (O15530 1-556): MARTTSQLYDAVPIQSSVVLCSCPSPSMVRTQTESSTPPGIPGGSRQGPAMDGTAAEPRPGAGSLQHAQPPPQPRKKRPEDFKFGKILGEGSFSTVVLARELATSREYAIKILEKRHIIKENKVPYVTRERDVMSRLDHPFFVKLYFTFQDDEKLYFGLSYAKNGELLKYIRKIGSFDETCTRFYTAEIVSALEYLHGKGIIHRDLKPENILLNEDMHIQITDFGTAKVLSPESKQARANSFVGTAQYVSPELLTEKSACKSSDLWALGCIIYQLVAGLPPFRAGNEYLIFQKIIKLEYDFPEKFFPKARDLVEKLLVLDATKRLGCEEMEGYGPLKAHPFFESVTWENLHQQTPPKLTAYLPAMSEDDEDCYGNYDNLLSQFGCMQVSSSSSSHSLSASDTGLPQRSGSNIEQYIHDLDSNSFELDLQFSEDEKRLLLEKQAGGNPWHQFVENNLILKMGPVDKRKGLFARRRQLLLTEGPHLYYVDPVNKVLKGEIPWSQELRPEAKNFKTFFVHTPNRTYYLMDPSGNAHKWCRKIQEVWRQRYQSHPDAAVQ

AKT-3 = AKT-3 (Homo sapiens, UniProt Q9Y243); experiment: AKT-3 inhibition assay (standard coupled enzyme assay); conditions: 170 μM ATP, 200 μM peptide, 45 nM AKT, 30° C.
AKT-3, sequence (Q9Y243 whole entry): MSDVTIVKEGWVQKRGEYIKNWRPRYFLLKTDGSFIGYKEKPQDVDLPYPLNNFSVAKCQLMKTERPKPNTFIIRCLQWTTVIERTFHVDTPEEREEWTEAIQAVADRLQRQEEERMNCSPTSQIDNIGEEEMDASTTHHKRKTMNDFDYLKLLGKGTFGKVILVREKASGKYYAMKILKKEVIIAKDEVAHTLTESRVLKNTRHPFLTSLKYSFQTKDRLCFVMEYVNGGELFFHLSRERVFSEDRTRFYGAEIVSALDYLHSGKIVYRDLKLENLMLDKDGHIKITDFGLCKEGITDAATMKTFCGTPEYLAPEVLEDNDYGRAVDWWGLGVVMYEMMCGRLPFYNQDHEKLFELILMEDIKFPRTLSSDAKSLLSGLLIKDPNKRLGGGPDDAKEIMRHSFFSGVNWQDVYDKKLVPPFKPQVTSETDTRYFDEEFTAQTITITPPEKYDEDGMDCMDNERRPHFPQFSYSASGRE

PKA = PKA (Homo sapiens, UniProt P17612); experiment: PKA inhibition assay (standard coupled enzyme assay); conditions: 50 μM ATP, 80 μM Kemptide, 18 nM PKA, 30° C.
Experimental: Compounds were screened for their ability to inhibit PKA using a standard coupled enzyme assay (Fox et al., Protein Sci., (1998) 7, 2249). Assays were carried out in a mixture of 100 mM HEPES 7.5, 10 mM MgCl2, 25 mM NaCl, 1 mM DTT and 3% DMSO. Final substrate concentrations in the assay were 50 μM ATP (Sigma Chemicals) and 80 μM peptide (Kemptide, American Peptide, Sunnyvale, Calif.). Assays were carried out at 30° C. and 18 nM PKA. Final concentrations of the components of the coupled enzyme system were 2.5 mM phosphoenolpyruvate, 300 μM NADH, 30 μg/ml pyruvate kinase and 10 μg/ml lactate dehydrogenase.
An assay stock buffer solution was prepared containing all of the reagents listed above, with the exception of ATP, and the test compound of interest. 55 μl of the stock solution was placed in a 96 well plate followed by addition of 2 μl of DMSO stock containing serial dilutions of the test compound (typically starting from a final concentration of 5 μM). The plate was preincubated for 10 minutes at 30° C. and the reaction initiated by addition of 5 μl of ATP (final concentration 50 μM). Initial reaction rates were determined with a Molecular Devices SpectraMax Plus plate reader over a 15 minute time course. IC50 and Ki data were calculated from non-linear regression analysis using the Prism software package (GraphPad Prism version 3.0a for Macintosh, GraphPad Software, San Diego Calif., USA).

Row | Compound | Ki (PDK-1) | Ki (AKT-3) | Ki (PKA)
1 | CC(=O)Nc1n[nH]c2ccc(NC(=O)C(CCN)c3ccc(Cl)c(Cl)c3)cc12 (stereo not drawn) [Compound I-140] | 1000 to 3000 nM | < 1000 nM | < 1000 nM
2 | NCCC(C(=O)Nc1ccc2[nH]ncc2c1)c1cccc(Cl)c1Cl (stereo not drawn) [Compound I-106] | < 1000 nM | < 1000 nM | < 1000 nM
3 | NCCC(C(=O)Nc1ccc2[nH]ncc2c1)c1cc(C(F)(F)F)cc(C(F)(F)F)c1 (stereo not drawn) [Compound I-105] | > 3000 nM | < 1000 nM | < 1000 nM
4 | NCCC(C(=O)Nc1ccc2[nH]nc(-c3ccccc3)c2c1)c1ccccc1 (stereo not drawn) [Compound I-1028] | < 1000 nM | 1000 to 10000 nM | < 1000 nM
5 | NCCC(C(=O)Nc1ccc2[nH]nc(NC(=O)c3cc(F)cc(C(F)(F)F)c3)c2c1)c1ccc(Cl)c(Cl)c1 (stereo not drawn) [Compound I-203] | > 3000 nM | < 1000 nM | < 1000 nM
6 | CCc1ccc(C(=O)Nc2n[nH]c3ccc(NC(=O)C(CCN)c4ccc(Cl)c(Cl)c4)cc23)cc1 (stereo not drawn) [Compound I-187] | 1000 to 3000 nM | < 1000 nM | < 1000 nM
7 | COC(=O)c1ccc(-c2n[nH]c3ccc(NC(=O)C(CCN)c4ccccc4)cc23)cc1 (stereo not drawn) [Compound I-235] | < 1000 nM | 1000 to 10000 nM | < 1000 nM
8 | NCCC(C(=O)Nc1ccc2[nH]nc(Nc3ccc(Br)cc3)c2c1)c1ccc(Cl)c(Cl)c1 (stereo not drawn) [Compound I-166] | 1000 to 3000 nM | < 1000 nM | < 1000 nM
9 | NCC[C@H](C(=O)Nc1ccc2[nH]nc(-c3ccccc3)c2c1)c1ccccc1 [Compound I-1053] | < 1000 nM | 10000 to 20000 nM | 1000 to 5000 nM
10 | NCCC(C(=O)Nc1ccc2[nH]nc(NC(=O)c3cccs3)c2c1)c1ccc(Cl)c(Cl)c1 (stereo not drawn) [Compound I-169] | < 1000 nM | < 1000 nM | < 1000 nM
11 | COc1c(C(CCN)C(=O)Nc2ccc3[nH]nc(C)c3c2)ccc(Cl)c1Cl (stereo not drawn) [Compound I-130] | < 1000 nM | < 1000 nM | < 1000 nM
12 | CNCCC(C(=O)Nc1ccc2[nH]ncc2c1)c1ccc(Cl)c(Cl)c1 (stereo not drawn) [Compound I-153] | > 3000 nM | < 1000 nM | < 1000 nM
13 | NCCC(C(=O)Nc1ccc2[nH]nc(NC(=O)c3ccco3)c2c1)c1ccccc1 (stereo not drawn) [Compound I-1041] | < 1000 nM | 1000 to 10000 nM | < 1000 nM
14 | C#Cc1n[nH]c2ccc(NC(=O)C(CCN)c3ccc(Cl)c(Cl)c3)cc12 (stereo not drawn) [Compound I-124] | 1000 to 3000 nM | < 1000 nM | < 1000 nM
15 | NCCC(C(=O)Nc1ccc2[nH]nc(NC(=O)c3ccncc3)c2c1)c1ccc(Cl)c(Cl)c1 (stereo not drawn) [Compound I-193] | < 1000 nM | < 1000 nM | < 1000 nM
16 | Cc1n[nH]c2ccc(NC(=O)C(CCN)c3ccc(Cl)c(Cl)c3O)cc12 (stereo not drawn) [Compound I-133] | > 3000 nM | < 1000 nM | < 1000 nM
17 | NCCC(C(=O)Nc1ccc2[nH]nc(Br)c2c1)c1ccc(Cl)c(Cl)c1 (stereo not drawn) [Compound I-122] | 1000 to 3000 nM | < 1000 nM | < 1000 nM
18 | NCCC(C(=O)Nc1ccc2[nH]nc(NC(=O)c3cccc(Oc4ccccc4)c3)c2c1)c1ccc(Cl)c(Cl)c1 (stereo not drawn) [Compound I-178] | > 3000 nM | < 1000 nM | < 1000 nM
19 | CNc1ccc(C(=O)Nc2n[nH]c3ccc(NC(=O)C(CCN)c4ccc(Cl)c(Cl)c4)cc23)cc1 (stereo not drawn) [Compound I-206] | < 1000 nM | < 1000 nM | < 1000 nM
20 | NCCC(C(=O)Nc1ccc2[nH]nc(NC(=O)c3cccc(Br)c3)c2c1)c1ccc(Cl)c(Cl)c1 (stereo not drawn) [Compound I-186] | 1000 to 3000 nM | < 1000 nM | < 1000 nM
21 | NCCC(C(=O)Nc1cc(Br)c2[nH]nc(Cl)c2c1)c1ccc(Cl)c(Cl)c1 (stereo not drawn) [Compound I-145] | > 3000 nM | < 1000 nM | < 1000 nM
22 | CN(C)CC(C(=O)Nc1ccc2[nH]ncc2c1)c1ccc(Cl)c(Cl)c1 (stereo not drawn) [Compound I-227] | > 3000 nM | < 1000 nM | < 1000 nM
23 | Cc1n[nH]c2ccc(NC(=O)[C@H](CCN)c3cccc(Cl)c3F)cc12 [Compound I-125] | < 1000 nM | < 1000 nM | < 1000 nM

Row | Compound | Ki (PDK-1) | Ki (AKT-3) | Ki (PKA)
24 | CNc1n[nH]c2ccc(NC(=O)C(CCN)c3ccc(Cl)c(Cl)c3)cc12 (stereo not drawn) [Compound I-134] | > 3000 nM | < 1000 nM | < 1000 nM
25 | NCCC(C(=O)Nc1ccc2[nH]nc(NC(=O)c3ccc(Br)cc3)c2c1)c1ccc(Cl)c(Cl)c1 (stereo not drawn) [Compound I-189] | < 1000 nM | < 1000 nM | < 1000 nM
26 | N#Cc1ccc(Nc2n[nH]c3ccc(NC(=O)C(CCN)c4ccc(Cl)c(Cl)c4)cc23)cc1 (stereo not drawn) [Compound I-164] | 1000 to 3000 nM | < 1000 nM | < 1000 nM
27 | COc1ccccc1C(CCN)C(=O)Nc1ccc2[nH]ncc2c1 (stereo not drawn) [Compound I-113] | > 3000 nM | 1000 to 10000 nM | < 1000 nM
28 | NCCC(C(=O)Nc1ccc2[nH]nc(NC(=O)c3cccc(OC(F)(F)F)c3)c2c1)c1ccc(Cl)c(Cl)c1 (stereo not drawn) [Compound I-204] | > 3000 nM | < 1000 nM | < 1000 nM
29 | NCCC(C(=O)Nc1ccc2[nH]nc(Cl)c2c1)c1ccc(Cl)c(Cl)c1 (stereo not drawn) [Compound I-121] | < 1000 nM | < 1000 nM | < 1000 nM
30 | NCCC(C(=O)Nc1ccc2[nH]ncc2c1)c1ccc2ccccc2c1 (stereo not drawn) [Compound I-102] | > 3000 nM | < 1000 nM | < 1000 nM
31 | Cc1cc(NC(=O)C(CCN)c2ccc(Cl)c(Cl)c2)cc2cn[nH]c12 (stereo not drawn) [Compound I-147] | 1000 to 3000 nM | < 1000 nM | < 1000 nM
32 | NCCC(C(=O)Nc1ccc2[nH]nc(NC(=O)c3ccccn3)c2c1)c1ccc(Cl)c(Cl)c1 (stereo not drawn) [Compound I-195] | < 1000 nM | < 1000 nM | < 1000 nM
33 | Cc1cccc(C(=O)Nc2n[nH]c3ccc(NC(=O)C(CCN)c4ccc(Cl)c(Cl)c4)cc23)c1 (stereo not drawn) [Compound I-185] | 1000 to 3000 nM | < 1000 nM | < 1000 nM
34 | Cc1cccc(C(CCN)C(=O)Nc2ccc3[nH]nc(C)c3c2)c1 (stereo not drawn) [Compound I-131] | > 3000 nM | < 1000 nM | < 1000 nM
35 | CCOc1cccc(C(=O)Nc2n[nH]c3ccc(NC(=O)C(CCN)c4ccc(Cl)c(Cl)c4)cc23)c1 (stereo not drawn) [Compound I-181] | < 1000 nM | < 1000 nM | < 1000 nM
36 | NCC(C(=O)Nc1ccc2[nH]ncc2c1)c1ccc(Cl)cc1 (stereo not drawn) [Compound I-242] | < 1000 nM | < 1000 nM | < 1000 nM
37 | Cc1n[nH]c2ccc(NC(=O)C(CN)c3ccc(Cl)c(Cl)c3)cc12 (stereo not drawn) [Compound I-233] | 1000 to 3000 nM and > 3000 nM | < 1000 nM | < 1000 nM
38 | NCCC(C(=O)Nc1ccc2[nH]nc(NC3CCCCC3)c2c1)c1ccc(Cl)c(Cl)c1 (stereo not drawn) [Compound I-159] | > 3000 nM | 1000 to 10000 nM | < 1000 nM
39 | NCC[C@@H](C(=O)Nc1ccc2[nH]nc(NC(=O)c3cccc(Cl)c3)c2c1)c1cccc(Cl)c1F [Compound I-177] | 1000 to 3000 nM | < 1000 nM | < 1000 nM
40 | Cc1n[nH]c2ccc(NC(=O)C(CCN)c3ccc(Cl)c(Cl)c3F)cc12 (stereo not drawn) [Compound I-136] | < 1000 nM | < 1000 nM | < 1000 nM
41 | NCCC(C(=O)Nc1ccc2[nH]ncc2c1)c1cccc(Br)c1 (stereo not drawn) [Compound I-110] | < 1000 nM | < 1000 nM | < 1000 nM
42 | NCCC(C(=O)Nc1ccc2[nH]nc(NC(=O)c3cccc(C(F)(F)F)c3)c2c1)c1ccc(Cl)c(Cl)c1 (stereo not drawn) [Compound I-200] | > 3000 nM | < 1000 nM | < 1000 nM
43 | NCCC(C(=O)Nc1ccc2[nH]nc(NC(=O)c3cc(Cl)cc(Cl)c3)c2c1)c1ccc(Cl)c(Cl)c1 (stereo not drawn) [Compound I-184] | > 3000 nM | < 1000 nM | < 1000 nM
44 | Cc1n[nH]c2ccc(NC(=O)C(CCN)c3cccc(Cl)n3)cc12 (stereo not drawn) [Compound I-129] | 1000 to 3000 nM | < 1000 nM | < 1000 nM
45 | NCCC(C(=O)Nc1ccc2[nH]nc(N)c2c1)c1ccc(Cl)c(Cl)c1 (stereo not drawn) [Compound I-138] | < 1000 nM | < 1000 nM | < 1000 nM
